Assay results published in patent publication US20250179167A1, “IL-6 INHIBITOR AS TREATMENT FOR NEPHROPATHY” (YALE UNIVERSITY, priority 2022, published 2025).

How the values were obtained:
Assay type in all cases: in vivo, mouse
[1] = system: isolated endothelial cells; test: Western blot in isolated endothelial cells from Wnt inhibitor-treated diabetic mice; details: isolated ECs from Wnt inhibitor-treated diabetic mice
Description: Western blot analysis of Snail1, PPARα, active-β-catenin, and HIF1α proteins in isolated endothelial cells. […] Densitometry calculations are combined from three independent experiments Data are mean±SEM. One-way Anova with Tukey multiple comparison post hoc test was used to calculate statistical significance. Significance—*p<0.05, **p<0.01, ***p<0.001. Isolation of endothelial cells. Endothelial cells from the kidneys of non-diabetic and diabetic mice were isolated using a standardized kit (Miltenyl Biotech, USA) by following the manufacturer's instructions. Briefly, kidneys were isolated and minced into small pieces. Using a series of enzymatic reactions by treating the tissue with trypsin and Collagenase type I solution, a single cell suspension was created. The pellet was dissolved with CD31 magnetic beads and the CD31-labelled cells were separated on a magnetic separator. The cells were further purified on a column. Cell number was counted by hemocytometer and cells were plated on 0.1% gelatin coated Petri dishes. Cell purity was measured by flow cytometry (BD FACSDiva) using PE-conjugated CD31 (BDB553373) (1:100) and FITC-conjugated CD45 (BDB553079) (1:100), both from Becton Dickinson (USA). Western blot. Protein lysates were boiled in sodium dodecyl sulfate (SDS) sample buffer at 94′C for 5 min. […]

[2] = system: db/db mice; test: Wnt inhibitor (LGK-974) treatment in db/db mice; details: 5 mg/kg body weight orally by gavage
Description: (FIG. 38A) Postprandial blood glucose measurements in the Wnt inhibitor treatments in db/db mice and untreated control db/db mice. LGK-974 (Wnt inhibitor) was treated at 5 mg/kg body weight dose orally by gavage. (FIG. 38B) GTT analysis in the Wnt inhibitor treatments in db/db mice and untreated control db/db mice. N=6 were analyzed in each group. (FIG. 38C) Area under curve (AUC) in the Wnt inhibitor treatments in db/db mice and untreated control db/db mice. N=6 were analyzed in each group. (FIG. 38D) Physiological parameters such as body weight, epididymal fat, kidney weight, liver weight and heart weight in the Wnt inhibitor treatments in db/db mice and untreated control db/db mice. N=6 were analyzed in each group. (FIG. 38E) MTS and Sirius red staining analysis in the Wnt inhibitor treatments in db/db mice and untreated control db/db mice. Representative pictures of 30× are shown. N=6 were analyzed in each group. Relative area fibrosis (RAF) and relative collagen deposition (RCD) were quantified using Image J software program. (FIG. 38F) MTS and Sirius red staining analysis in the heart sections in the Wnt inhibitor treatments in db/db mice and untreated control db/db mice. Representative pictures of 20× are shown. N=6 were analyzed in each group. […] N=6 were analyzed in each group. […]

[3] = system: diabetic CD-1 mice; test: Wnt inhibitor (LGK974) treatment in diabetic CD-1 mice, renal histology, GR and β-catenin
Description: FIG. 24A-24J show inhibition of Wnt signaling abolished the fibrogenic phenotype in mice. (FIG. 24A) Immunohistochemical analysis of -catenin expression in the kidneys of control and diabetic CD-1 and C57BL/6 mice. n=8 biologically independent mice/group combined from two independent experiments were evaluated. Scale bar 50 μm. Representative images are shown; original magnification 200×. (FIG. 24B) Relative mRNA expression determined by qRT-PCR of Axin2, Tcf and fibronectin, in kidneys of control and diabetic CD-1 and C57BL/6 mice. n=6 biologically independent mice/group combined from two experiments were evaluated. Expression was normalized to the internal control 18S. (FIG. 24C) Schematic diagram representing the treatment protocol of Wnt inhibitor (LGK974; 5 mg/kg body weight) in diabetic CD-1 mice and (FIG. 24D) in UUO mice. (FIG. 24E) Masson trichrome and Sirius red staining in the kidneys of diabetic and Wnt inhibitor-treated diabetic CD-1 mice. Representative images (original magnification 300×) are shown. Relative area of fibrosis (%) and relative collagen deposition (%) were measured using the ImageJ program. n=8 biologically independent mice/group combined from two experiments were evaluated. Scale bar 50 μm. (FIG. 24F) Masson trichrome and Sirius red staining in the kidneys of UUO and Wnt inhibitor-treated UUO mice. Representative images (original magnification 300×) are shown. Relative area of fibrosis (%) and relative collagen deposition (%) were measured using the ImageJ program. n=8 biologically independent mice/group combined from two experiments were evaluated. Scale bar 50 μm. (FIGS. 24G-24H) GR protein levels in CD31-positive cells were analyzed by immunofluorescence in the kidneys of Wnti-treated diabetic mice and Wnti-treated UUO mice. FITC-labeled GR, rhodamine-labeled CD31 and DAPI were used. Merged images and representative pictures are shown; original magnification 300×. n=7 biologically independent mice/group combined from four experiments were evaluated. Scale bar 50 μm. (FIGS. 24I-24J) Immunohistochemical analysis of active -catenin expression in Wnti-treated diabetic mice and Wnti-treated UUO mice. n=7 biologically independent mice/group combined from three experiments were evaluated. Scale bar 30 μm. Data are mean SEM. In all panels, one-way Anova with Tukey multiple comparison post hoc test was used to calculate statistical significance. Significance—*p<0.05, **p<0.01, ***p<0.001.
A single IP dose of 200 mg/kg STZ was used to induce diabetes in CD-1 mice.
In one experiment, male mice were randomized to one of 4 groups sixteen weeks after induction of diabetes: (i) untreated, (ii) fenofibrate (100 mg/kg), (iii) simvastatin (40 mg/kg), or (iv) Wnt inhibitor (LGK974; 5 mg/kg). In each case, mice were treated for 4 weeks and compared to untreated diabetic CD-1 mice. In another experiment, male diabetic CD-1 mice were randomized into one of 3 groups: (i) untreated (vehicle), (ii) etomoxir (20 mg/kg) or (iii) C75 (15 mg/kg); in each case mice were treated (IP) three times/week for a total 4 weeks.
Morphological Evaluation. A point-counting method was utilized to evaluate the relative area of the mesangial matrix. The inventors analyzed PAS-stained glomeruli from each mouse using a digital microscope screen grid containing 540 (27×20) points. Masson's trichrome-stained images were evaluated by ImageJ software, and the fibrotic areas were estimated.
Sirius red staining. Deparaffinized sections were incubated with picrosirius red solution for 1 hour at room temperature. The slides were washed twice with acetic acid solution for 30 seconds per wash. The slides were then dehydrated in absolute alcohol three times, cleared in xylene, and mounted with a synthetic resin. Sirius red staining was analyzed using ImageJ software, and fibrotic areas were quantified.
Immunohistochemistry. […]

[4] = system: isolated kidney ECs of diabetic CD-1 mice; test: Fatty acid oxidation ([14CO2] release) in isolated kidney endothelial cells
Description: (FIG. 31B) Fatty acid oxidation, as represented by [^14CO2]released. [^14C]palmitate was used as substrate and CPM counts were normalized to protein. In both cases, endothelial cells isolated from n=5 biologically independent mice/group were analyzed in triplicate. Data are mean±SEM. One-way Anova with Tukey multiple comparison post hoc test was used to calculate statistical significance. Significance—*p<0.05, **p<0.01, ***p<0.001. Fatty Acid Oxidation. Cultured isolated kidney endothelial cells were incubated with medium containing 0.75 mmol/L palmitate (conjugated to 2% free fatty acid-free BSA/[^14C]palmitate at 2 μCi/mL) for 2 h. One mL of the culture medium was transferred to a sealable tube, the cap of which housed a Whatman filter paper disc. ^14CO2 trapped in the media was then released by acidification of media using 60% perchloric acid. Radioactivity that had become adsorbed onto the filter discs was then quantified by liquid scintillation counting.

[5] = system: ECs from CD-1 mice; test: Fatty acid uptake ([14C]palmitate uptake) in isolated kidney endothelial cells
Description: (FIG. 31A) Fatty acid uptake was measured as [^14C]palmitate uptake. […] [^14C]palmitate was used as substrate and CPM counts were normalized to protein. In both cases, endothelial cells isolated from n=5 biologically independent mice/group were analyzed in triplicate. Data are mean±SEM. One-way Anova with Tukey multiple comparison post hoc test was used to calculate statistical significance. Significance—*p<0.05, **p<0.01, ***p<0.001. Fatty acid uptake. Cultured isolated kidney endothelial cells were incubated with medium containing 2 μCi [^14C]-palmitate. [^14C]-palmitate uptake was measured by liquid scintillation counting.

Cc1cc(-c2ncc(CC(=O)Nc3ccc(-c4cnccn4)cn3)cc2C)ccn1 [LGK974]
Snail1, HIF1α and PPARα proteins [1]: A similar effect was observed
fibrogenic phenotype [2]: abolishes fibrogenic phenotype
ECM deposition ([3]; 5 mg/kg): greatly diminished
collagen accumulation ([3]; 5 mg/kg): greatly diminished
glomerulosclerosis ([3]; 5 mg/kg): greatly diminished
relative area of fibrosis ([3]; 5 mg/kg): greatly diminished
level of β-catenin ([3]; kidney immunohistochemistry): suppressed the level of β-catenin
endothelial GR ([3]; kidney, GR in CD31-positive cells): substantially restored endothelial GR
level of FAO ([14CO2] release) [4]: able to restore the level of FAO
FA uptake ([14C]palmitate uptake) [5]: suppressed FA uptake
